What was measured:
Type in all cases: in vivo
corn (Zea mays) [1] = assay: Test G Post-Emergence Protocol; details: Zea mays, post-emergence, 312 h
Summary of the method: (§1)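 A glasshouse post-emergence test: 8-day-old plants sprayed at 15.625, 62.5 or 250 g/ha, then grown at 24/16 °C day/night with 14 h light and 65% humidity. Damage rated 13 days later, 0–100.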

[2] = system: ivy-leaved morning glory (Ipomoea hederacea); assay: Test G Post-Emergence Protocol; details: Ipomoea, post-emergence, 312 h
Summary of the method: as §1

[3] = system: giant foxtail (Setaria faberi); assay: Test G Post-Emergence Protocol; details: Setaria faberi, post-emergence, 312 h
Summary of the method: as §1

[4] = system: velvetleaf (Abutilon theophrasti); assay: Test G Post-Emergence Protocol; details: Abutilon theophrasti, post-emergence, 312 h
Summary of the method: as §1

[5] = system: redroot pigweed (Amaranthus retroflexus); assay: Test G Post-Emergence Protocol; details: Amaranthus retroflexus, post-emergence, 312 h
Summary of the method: as §1

[6] = system: barnyardgrass (Echinochloa crus-galli); assay: Test G Post-Emergence Protocol; details: Echinochloa crus-galli, post-emergence, 312 h
Summary of the method: as §1

corn (Zea mays) [7] = assay: Test G Pre-Emergence Protocol; details: Zea mays, pre-emergence, 312 h, evaluated after 13 days
Summary of the method: (§2)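 Scores are visual damage ratings from 0 (no damage) to 100 (total plant kill), taken 13 days after treatment. Compound was sprayed one day post-sowing at 15.625, 62.5 or 250 g/ha in 50:50 acetone/water with 0.5% Tween 20.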

[8] = system: ivy-leaved morning glory (Ipomoea hederacea); assay: Test G Pre-Emergence Protocol; details: Ipomoea, pre-emergence, 312 h, evaluated after 13 days
Summary of the method: as §2

[9] = system: giant foxtail (Setaria faberi); assay: Test G Pre-Emergence Protocol; details: Setaria faberi, pre-emergence, 312 h, evaluated after 13 days
Summary of the method: as §2

[10] = system: velvetleaf (Abutilon theophrasti); assay: Test G Pre-Emergence Protocol; details: Abutilon theophrasti, pre-emergence, 312 h, evaluated after 13 days
Summary of the method: as §2

[11] = system: redroot pigweed (Amaranthus retroflexus); assay: Test G Pre-Emergence Protocol; details: Amaranthus retroflexus, pre-emergence, 312 h, evaluated after 13 days
Summary of the method: as §2

[12] = system: barnyardgrass (Echinochloa crus-galli); assay: Test G Pre-Emergence Protocol; details: Echinochloa crus-galli, pre-emergence, 312 h, evaluated after 13 days
Summary of the method: as §2

`Cc1c(C#N)cccc1NC(=O)[C@H]1C(=O)N(C)C[C@@H]1c1ccc(C(F)(F)F)cc1` (racemic) [Compound 1444] showed a plant injury at 15.625 g/ha (corn (Zea mays) [1]; 15.625 g ai/ha, evaluated after 13 days (100=total damage to plant; 0=no damage to plant), read-out: Corn damage rating) of 10%, a plant injury at 62.5 g/ha (corn (Zea mays) [1]; 62.5 g ai/ha, evaluated after 13 days, read-out: Corn damage rating (100=total damage to plant; 0=no damage to plant)) of 10% and a plant injury at 250 g/ha (corn (Zea mays) [1]; 250 g ai/ha, evaluated after 13 days, read-out: damage to plant, Corn (100=total damage to plant; 0=no damage to plant)) of 10%. The pest or weed control at 15.625 g/ha ([2]; 15.625 g ai/ha, evaluated after 13 days (100=total damage to plant; 0=no damage to plant), read-out: Morningglory, Ivy-leaved damage rating) was 0%, the pest or weed control at 62.5 g/ha ([2]; 62.5 g ai/ha, evaluated after 13 days, read-out: Morningglory, Ivy-leaved damage rating (100=total damage to plant; 0=no damage to plant)) was 10% and the pest or weed control at 250 g/ha ([2]; 250 g ai/ha, evaluated after 13 days, read-out: damage to plant, Morningglory, Ivy-leaved (100=total damage to plant; 0=no damage to plant)) was 10%. For the same compound, the pest or weed control at 15.625 g/ha ([3]; 15.625 g ai/ha, evaluated after 13 days (100=total damage to plant; 0=no damage to plant), read-out: Foxtail, Giant damage rating) was 0%, the pest or weed control at 62.5 g/ha ([3]; 62.5 g ai/ha, evaluated after 13 days, read-out: Foxtail, Giant damage rating (100=total damage to plant; 0=no damage to plant)) was 60% and the pest or weed control at 250 g/ha ([3]; 250 g ai/ha, evaluated after 13 days, read-out: damage to plant, Foxtail, Giant (100=total damage to plant; 0=no damage to plant)) was 60%. The pest or weed control at 15.625 g/ha ([4]; 15.625 g ai/ha, evaluated after 13 days (100=total damage to plant; 0=no damage to plant), read-out: Velvetleaf damage rating) was 0%, the pest or weed control at 62.5 g/ha ([4]; 62.5 g ai/ha, evaluated after 13 days, read-out: Velvetleaf damage rating (100=total damage to plant; 0=no damage to plant)) was 0% and the pest or weed control at 250 g/ha ([4]; 250 g ai/ha, evaluated after 13 days, read-out: damage to plant, Velvetleaf (100=total damage to plant; 0=no damage to plant)) was 0%. It also gave a pest or weed control at 15.625 g/ha ([5]; 15.625 g ai/ha, evaluated after 13 days (100=total damage to plant; 0=no damage to plant), read-out: Pigweed, Redroot damage rating) of 10%, a pest or weed control at 62.5 g/ha ([5]; 62.5 g ai/ha, evaluated after 13 days, read-out: Pigweed, Redroot damage rating (100=total damage to plant; 0=no damage to plant)) of 10% and a pest or weed control at 250 g/ha ([5]; 250 g ai/ha, evaluated after 13 days, read-out: damage to plant, Pigweed, Redroot (100=total damage to plant; 0=no damage to plant)) of 20%. The pest or weed control at 15.625 g/ha ([6]; 15.625 g ai/ha, evaluated after 13 days (100=total damage to plant; 0=no damage to plant), read-out: Barnyardgrass damage rating) was 0%, the pest or weed control at 62.5 g/ha ([6]; 62.5 g ai/ha, evaluated after 13 days, read-out: Barnyardgrass damage rating (100=total damage to plant; 0=no damage to plant)) was 10% and the pest or weed control at 250 g/ha ([6]; 250 g ai/ha, evaluated after 13 days, read-out: damage to plant, Barnyardgrass (100=total damage to plant; 0=no damage to plant)) was 20%. The plant injury at 15.625 g/ha (corn (Zea mays) [7]; 15.625 g ai/ha, read-out: Corn damage rating (100=total damage to plant; 0=no damage to plant)) was 0%, the plant injury at 62.5 g/ha (corn (Zea mays) [7]; 62.5 g ai/ha, 100=total damage to plant, 0=no damage to plant, read-out: plant damage rating, Corn) was 0% and the plant injury at 250 g/ha (corn (Zea mays) [7]; 250 g ai/ha, read-out: Corn damage rating (100=total damage to plant; 0=no damage to plant)) was 50%. For the same compound, the pest or weed control at 15.625 g/ha ([8]; 15.625 g ai/ha, read-out: Morning-glory, Ivy-leaved damage rating (100=total damage to plant; 0=no damage to plant)) was 10%, the pest or weed control at 62.5 g/ha ([8]; 62.5 g ai/ha, 100=total damage to plant, 0=no damage to plant, read-out: plant damage rating, Morningglory, Ivy-leaved) was 0% and the pest or weed control at 250 g/ha ([8]; 250 g ai/ha, read-out: Morningglory, Ivy-leaved damage rating (100=total damage to plant; 0=no damage to plant)) was 40%. For the same compound, the pest or weed control at 15.625 g/ha ([9]; 15.625 g ai/ha, read-out: Foxtail, Giant damage rating (100=total damage to plant; 0=no damage to plant)) was 50%, the pest or weed control at 62.5 g/ha ([9]; 62.5 g ai/ha, 100=total damage to plant, 0=no damage to plant, read-out: plant damage rating, Foxtail, Giant) was 80% and the pest or weed control at 250 g/ha ([9]; 250 g ai/ha, read-out: Foxtail, Giant damage rating (100=total damage to plant; 0=no damage to plant)) was 80%. For the same compound, the pest or weed control at 15.625 g/ha ([10]; 15.625 g ai/ha, read-out: Velvetleaf damage rating (100=total damage to plant; 0=no damage to plant)) was 0%, the pest or weed control at 62.5 g/ha ([10]; 62.5 g ai/ha, 100=total damage to plant, 0=no damage to plant, read-out: plant damage rating, Velvetleaf) was 20% and the pest or weed control at 250 g/ha ([10]; 250 g ai/ha, read-out: Velvetleaf damage rating (100=total damage to plant; 0=no damage to plant)) was 20%. The pest or weed control at 15.625 g/ha ([11]; 15.625 g ai/ha, read-out: Pigweed, Redroot damage rating (100=total damage to plant; 0=no damage to plant)) was 0%, the pest or weed control at 62.5 g/ha ([11]; 62.5 g ai/ha, 100=total damage to plant, 0=no damage to plant, read-out: plant damage rating, Pigweed, Redroot) was 40% and the pest or weed control at 250 g/ha ([11]; 250 g ai/ha, read-out: Pigweed, Redroot damage rating (100=total damage to plant; 0=no damage to plant)) was 50%. The pest or weed control at 15.625 g/ha ([12]; 15.625 g ai/ha, read-out: Barnyard grass damage rating (100=total damage to plant; 0=no damage to plant)) was 10%, the pest or weed control at 62.5 g/ha ([12]; 62.5 g ai/ha, 100=total damage to plant, 0=no damage to plant, read-out: plant damage rating, Barnyardgrass) was 30% and the pest or weed control at 250 g/ha ([12]; 250 g ai/ha, read-out: Barnyardgrass damage rating (100=total damage to plant; 0=no damage to plant)) was 60%.

From patent publication US12077503B2, “Substituted cyclic amides and their use as herbicides” (FMC CORPORATION, priority 2015, dated 2024)
